These are literature values, as cited in patent US20250281408A1, “AMORPHOUS SOLID DISPERSIONS AND PHARMACEUTICAL COMPOSITIONS COMPRISING THE SAME” (Shenzhen Pharmacin Co., Ltd., priority 2022, published 2025).

The conditions of data set [1]: relative to fasted conditions, healthy subjects.
The conditions of data set [2]: fed conditions.
The conditions of data set [3]: high-fat or low-fat meal.

Where two headings read alike, the source gives them in different places.

For the molecule `CC(=O)O[C@H]1CC[C@@]2(C)C(=CC[C@@H]3[C@@H]2CC[C@]2(C)C(c4cccnc4)=CC[C@@H]32)C1` [Abiraterone Acetate], the solubility in water entry is “very poorly water soluble”. Consider `COc1cc2nccc(Oc3ccc(NC(=O)C4(C(=O)Nc5ccc(F)cc5)CC4)cc3)c2cc1OC` [Cabozantinib], for which the “solubility in aqueous solution / aqueous media” value is “practically insoluble”. In data set [1], the “increase of AUC by a high-fat meal” value was 57% and the “increase of Cmax by a high-fat meal” value is 41%.

For the molecule `CC1(C)CCC(CN2CCN(c3ccc(C(=O)NS(=O)(=O)c4ccc(NCC5CCOCC5)c([N+](=O)[O-])c4)c(Oc4cnc5[nH]ccc5c4)c3)CC2)=C(c2ccc(Cl)cc2)C1` [Venetoclax], the solubility in water result is given as “poor water solubility”. For `CCc1cc2c(cc1N1CCC(N3CCOCC3)CC1)C(C)(C)c1[nH]c3cc(C#N)ccc3c1C2=O` [alectinib], the “solubility in aqueous solution / aqueous media” value was “very hard to dissolve”. In addition, the absolute bioavailability in data set [2] is reported as 37%. On to `O=C1[C@@H]2[C@H]3CC[C@H](C3)[C@@H]2C(=O)N1C[C@@H]1CCCC[C@H]1CN1CCN(c2nsc3ccccc23)CC1` [lurasidone], for which the solubility in water result is reported as “very slightly soluble”.

Turning to `Cc1ccc(Nc2nccc(N(C)c3ccc4c(C)n(C)nc4c3)n2)cc1S(N)(=O)=O` [pazopanib], the “solubility in aqueous media” value (above pH 4) was “practically insoluble”. In addition, the “solubility in aqueous media” value (pH 1) was “very slightly soluble”. Moreover, in data set [3], the “increase in AUC with food” value is on record as “approximately 2 fold” and the “increase in Cmax with food” value is on record as “approximately 2 fold”. Turning to `N#Cc1ccc2[nH]cc(CCCCN3CCN(c4ccc5oc(C(N)=O)cc5c4)CC3)c2c1` [vilazodone], the solubility in water result is “very slightly soluble”.
